19 compounds from patent US20240083857A1, “2-Methyl-Quinazolines” (Bayer Pharma Aktiengesellschaft, priority 2017, published 2024) can be followed below.

Broadly, the IC50 is the concentration at which inhibition is half-maximal. The term inhibition denotes the relative decrease from the control value, in per cent.

Read-outs that look alike come from different tables or passages of the source.

Assay [1] concerns the target K-Ras^G12C : hSOS1 interaction (Homo sapiens, UniProt Q07889). The experiment in a line: Biochemical assay 1: K-Ras^G12C interaction assay with hSOS1 (HTRF). The format is binding. The following applies: for inhibition at 20 µM: read-out: Assay 1 (KRAS-SOS Interaction) activity expressed as % inhibition at 20 μM. (Time-resolved FRET reads energy transfer from a long-lived donor to a nearby acceptor.)

The target in assay [2] is human SOS1 (nucleotide exchange of K-Ras^G12C) (Homo sapiens, UniProt Q07889). The experiment in a line: Biochemical assay 2: K-Ras^G12C activation assay by hSOS1 at high GTP concentration (HTRF). The note with it: for inhibition at 20 µM: read-out: Assay 2 (KRAS-Activation by SOS high GTP) activity expressed as % inhibition at 20 μM.
The target in assay [3] is human SOS1 (loading of human K-Ras^G12C-GDP with fluorescent GTP-analog) (Homo sapiens, UniProt Q07889). The experiment in a line: Biochemical assay 3: K-Ras^G12C activation assay by hSOS1 (HTRF). The following applies: for inhibition at 20 µM: read-out: Assay 3 (KRAS-Activation by SOS no GTP) activity expressed as % inhibition at 20 μM.
[4] abbreviates: read-out: Assay 1 (KRAS-SOS Interaction) activity expressed as IC50.
[5] abbreviates: high GTP, read-out: Assay 2 (KRAS-Activation by SOS high GTP) activity expressed as IC50.
The mark [6] stands for this setting: no GTP, read-out: Assay 3 (KRAS-Activation by SOS no GTP) activity expressed as IC50.

With `COc1cc2nc(C)nc(N[C@@H](C)c3ccc(-c4ccccc4NC(C)=O)s3)c2cc1OC` (racemic) [Example 166, N-[2-(5-{1-[(6,7-dimethoxy-2-methylquinazolin-4-yl)amino]ethyl}thiophen-2-yl)phenyl]acetamide], the IC50 in assay [1] (setting [4]) was found to be 1.8 µM; in assay [2] (setting [5]), 3.68 µM; in assay [3] (setting [6]), 4.99 µM.

On to `COc1cc2nc(C)nc(NC(C)c3ccc(-c4ccc(C(F)(F)F)cc4C)s3)c2cc1OC` (stereo not drawn) [Example 386, 6,7-di methoxy-2-methyl-N-(1-{5-[2-methyl-4-(trifluoromethyl)phenyl]-2-thienyl}ethyl)quinazolin-4-amine], for which the concentration for half-maximal inhibition (IC50) amounted to 8.77 µM in assay [1] (E-notation values, unit inferred, read-out: Assay 1 (KRAS-SOS interaction) IC50); 3.66 µM in assay [2] (E-notation values, unit inferred, 50 μM GTP, read-out: Assay 2 (KRAS-Activation, high GTP) IC50); 10.1 µM in assay [3] (E-notation values, unit inferred, read-out: Assay 3 (KRAS-Activation) IC50).

Turning to `COc1cc2nc(C)nc(N[C@H](C)c3cccc(-c4ccc(-c5nnc(C)o5)cc4)c3)c2cc1OC` [Example 59, 6,7-dimethoxy-2-methyl-N-{(1R)-1-[4′-(5-methyl-1,3,4-oxadiazol-2-yl)biphenyl-3-yl]ethyl}quinazolin-4-amine], the 50% inhibitory concentration (IC50) turned out to be 1.59 µM in assay [1] (setting [4]), 0.77 µM in assay [2] (setting [5]) and 0.965 µM in assay [3] (setting [6]).

With `COc1cc2nc(C)nc(N[C@H](C)c3cccc(-c4cccc(OCc5ccccc5)c4)c3)c2cc1OC` [Example 123, N-{(1R)-1-[3′-(benzyloxy)biphenyl-3-yl]ethyl}-6,7-dimethoxy-2-methylquinazolin-4-amine], the inhibition at 20 µM in assay [1] worked out at 52%; in assay [3] (no GTP) it was 42%. Also, in assay [2] (setting [5]), the IC50 amounted to 13.1 µM.

With `C/C=C(\C)c1cccc([C@@H](C)Nc2nc(C)nc3cc(OC)c(OC)cc23)c1` [Example 76, N-[(1R)-1-{3-[(2E)-but-2-en-2-yl]phenyl}ethyl]-6,7-dimethoxy-2-methylquinazolin-4-amine], the half-inhibitory concentration (IC50) in assay [1] (setting [4]) was found to be 0.471 µM; in assay [2] (setting [5]), 1.19 µM; in assay [3] (setting [6]) it was 0.952 µM.

As for `COc1cc2nc(C)nc(N[C@H](C)c3cccc(-c4ccc5c(c4)CCO5)c3)c2cc1OC` [Example 113, N-{(1R)-1-[3-(2,3-dihydro-1-benzofuran-5-yl)phenyl]ethyl}-6,7-dimethoxy-2-methylquinazolin-4-amine], the results for the IC50 in assay [1] (setting [4]), in assay [2] (setting [5]) and in assay [3] (setting [6]) were 1.35 µM, 0.839 µM and 2.1 µM, respectively.

For `COc1cc2nc(C)nc(N[C@H](C)c3cccc(-c4cncc(C)c4)c3)c2cc1OC` [Example 41, 6,7-dimethoxy-2-methyl-N-{(1R)-1-[3-(5-methylpyridin-3-yl)phenyl]ethyl}quinazolin-4-amine], the IC50 in assay [1] (setting [4]) was determined as 0.972 µM; in assay [2] (setting [5]) it was 1.4 µM; in assay [3] (setting [6]), 1.67 µM.

As to `COc1cc(F)cc(-c2cccc([C@@H](C)Nc3nc(C)nc4cc(OC)c(OC)cc34)c2)c1` [Example 65, N-[(1R)-1-(3′-fluoro-5′-methoxybiphenyl-3-yl)ethyl]-6,7-dimethoxy-2-methylquinazolin-4-amine], the IC50 in assay [1] (setting [4]) turned out to be 5.76 µM; in assay [2] (setting [5]), 8.34 µM; in assay [3] (setting [6]) it was 13.5 µM.

Regarding `COc1cc2nc(C)nc(N[C@@H](C)c3ccc(-c4cnc5[nH]ccc5c4)s3)c2cc1OC` (racemic) [Example 129, 6,7-dimethoxy-2-methyl-N-{1-[5-(1H-pyrrolo[2,3-b]pyridin-5-yl)thiophen-2-yl]ethyl}quinazolin-4-amine], the IC50 in assay [1] (setting [4]) is 1.48 µM; in assay [2] (setting [5]) it was 2.38 µM; in assay [3] (setting [6]), 3.45 µM.

As for `COc1cc2nc(C)nc(N[C@H](C)c3cccc(-c4cccc(CNS(C)(=O)=O)c4)c3)c2cc1OC` [Example 71, N-[(3′-{(1R)-1-[(6,7-dimethoxy-2-methylquinazolin-4-yl)amino]ethyl}biphenyl-3-yl)methyl]methanesulfonamide], the results for the IC50 in assay [1] (setting [4]), in assay [2] (setting [5]) and in assay [3] (setting [6]) were 0.393 µM, 0.643 µM and 0.68 µM, respectively.

Take `COc1cc(F)cc(-c2ccc([C@H](C)Nc3nc(C)nc4cc(OC)c(OC)cc34)s2)c1` (stereo in doubt) [Example 134, N-{1-[5-(3-fluoro-5-methoxyphenyl)thiophen-2-yl]ethyl}-6,7-dimethoxy-2-methylquinazolin-4-amine]: the results for the inhibition at 20 µM in assay [1], in assay [2] (high GTP) and in assay [3] (no GTP) were 43%, 23% and 27%, respectively.

In the case of `COc1cc2nc(C)nc(N[C@H](C)c3cccc(-c4cccc(N5CCOCC5)c4)c3)c2cc1OC` [Example 80, 6,7-dimethoxy-2-methyl-N-{(1R)-1-[3′-(morpholin-4-yl)biphenyl-3-yl]ethyl}quinazolin-4-amine], the results for the half-inhibitory concentration (IC50) in assay [1] (setting [4]), in assay [2] (setting [5]) and in assay [3] (setting [6]) were 0.721 µM, 0.711 µM and 1.12 µM, respectively.

Take `COCc1ccccc1-c1cccc([C@@H](C)Nc2nc(C)nc3cc(OC)c(OC)cc23)c1` [Example 104, 6,7-dimethoxy-N-{(1R)-1-[2′-(methoxymethyl)biphenyl-3-yl]ethyl}-2-methylquinazolin-4-amine]: the values for the concentration for half-maximal inhibition (IC50) in assay [1] (setting [4]), in assay [2] (setting [5]) and in assay [3] (setting [6]) were 1.82 µM, 1.9 µM and 2.52 µM, respectively.

For `COc1cc2nc(C)nc(N[C@@H](C)c3ccc(-c4cccc(OCc5ccccc5)c4)s3)c2cc1OC` (stereo in doubt) [Example 135, N-[1-{5-[3-(benzyloxy)phenyl]thiophen-2-yl}ethyl]-6,7-dimethoxy-2-methylquinazolin-4-amine], the inhibition at 20 µM in assay [1] came to 28%; in assay [2] (high GTP), 5%; in assay [3] (no GTP), 13%.

As to `COc1cc2nc(C)nc(N[C@@H](C)c3ccc(-c4ccccc4OC(F)(F)F)s3)c2cc1OC` (racemic) [Example 150, 6,7-dimethoxy-2-methyl-N-[1-{5-[2-(trifluoromethoxy)phenyl]thiophen-2-yl}ethyl]quinazolin-4-amine], the half-inhibitory concentration (IC50) was 7.36 µM in assay [1] (setting [4]), 13.2 µM in assay [2] (setting [5]) and 13.2 µM in assay [3] (setting [6]).

With `COc1cc2nc(C)nc(N[C@H](C)c3cccc(-c4ccc5[nH]ccc5c4)c3)c2cc1OC` [Example 85, N-{(1R)-1-[3-(1H-indol-5-yl)phenyl]ethyl}-6,7-dimethoxy-2-methylquinazolin-4-amine], the concentration for half-maximal inhibition (IC50) in assay [1] (setting [4]) turned out to be 0.687 µM; in assay [2] (setting [5]), 0.756 µM; in assay [3] (setting [6]), 1.26 µM.

Regarding `COc1cc2nc(C)nc(NC(C)c3cc(Br)cc4c3OCC4)c2cc1OC` (stereo not drawn) [Example 225, N-[1-(5-bromo-2,3-dihydro-1-benzofuran-7-yl)ethyl]-6,7-dimethoxy-2-methylquinazolin-4-amine], the concentration for half-maximal inhibition (IC50) in assay [1] (setting [4]) was 1.54 µM; in assay [2] (setting [5]), 2.27 µM; in assay [3] (setting [6]), 4.68 µM.

In the case of `COc1cc2nc(C)nc(N[C@H](C)c3cccc(-c4cccc(-c5nnc(C)o5)c4)c3)c2cc1OC` [Example 55, 6,7-dimethoxy-2-methyl-N-{(1R)-1-[3′-(5-methyl-1,3,4-oxadiazol-2-yl)biphenyl-3-yl]ethyl}quinazolin-4-amine], the figures for the IC50 in assay [1] (setting [4]), in assay [2] (setting [5]) and in assay [3] (setting [6]) were 0.674 µM, 0.629 µM and 0.724 µM, respectively.

For `COc1cc2nc(C)nc(N[C@@H](C)c3ccc(-c4ccc5c(c4)OCCN5C)s3)c2cc1OC` (stereo in doubt) [Example 164, 6,7-dimethoxy-2-methyl-N-{1-[5-(4-methyl-3,4-dihydro-2H-1,4-benzoxazin-7-yl)thiophen-2-yl]ethyl}quinazolin-4-amine], the inhibition at 20 µM in assay [1] was 41%; in assay [2] (high GTP) it was 19%; in assay [3] (no GTP) it was 22%.
